Laboratory results taken from patent US20090035440A1, “Compositions comprising polyphenol” (Conopco, Inc. d/b/a Unilever, priority 2007, published 2009).

Tests used:
[1] = 1H-NMR estimate of non-complexed (free) EGCG in mixed systems with complexing agent; type: binding; conditions: 0.6 wt % EGCG and 0.6 wt % CA in de-ionized water; pH 5.0 (WPI pH 6.5); 1H-NMR at 27° C.
Procedure: (§1) Stock solutions containing 1.2 wt % EGCG were prepared by adding the powder to de-ionized water (conductivity=18.2 MΩ.cm) and stirring at 40° C. […] Stock solutions of pectin, were prepared by dissolving powder in de-ionized water at 80° C. for 1 hour and then cooling to 25° C. After dissolving the material, the pH of all samples, except for the WPI, was adjusted to 5.0 using 0.01 HCl or 0.1 M NaOH. The WPI was used at a pH of 6.5 to avoid precipitation of the whey proteins. In all cases the maximum ionic strength would remain below 10 mM. After setting the pH, mixed systems were prepared by quickly adding a fixed weight of the stock EGCG-solution into the same weight of complexing agent (CA)-solution under continuous stirring. Thus the final samples contained 0.6 wt % EGCG and 0.6 wt % CA.
Proton-NMR measurements were carried out on 0.6 ml samples in 5 mm NMR tubes at 27° C. using a Bruker AV600 NMR spectrometer. Prior to measurement, 5% (w/w) of D2O was added to each sample. The spectra were acquired with presaturation of the water signal using the Bruker pulse program: noesygppr1d. A signal at ˜4.7 ppm was from residual water and was ignored for data analysis purposes. […] This calibration curve was used to estimate the amount of non-complexed (or “free”) EGCG in the samples.

[2] = Dynamic light scattering particle size of EGCG/complexing agent mixed systems (Example 1); type: physicochemical; conditions: 0.6 wt % EGCG and 0.6 wt % CA; DLS at 25° C., undiluted; volume-averaged; one value per peak where more than one peak
Procedure: as §1
DLS measurements were performed within 4 hours after sample preparation using a Zetasizer Nano ZS instrument (Malvern Instruments, Malvern, UK). This instrument records intensity fluctuations of scattered light at a fixed angle from clear samples containing particles between 1 and 1000 nm in size. These fluctuations are converted into an autocorrelation function spanning time scales between picoseconds and seconds. The instrument software fits intensity- and volume-weighed size distributions to the recorded autocorrelations. Samples were measured without any dilution at 25° C. […]

[3] = Appearance of EGCG/complexing agent mixed systems (Example 1); type: physicochemical; conditions: 0.6 wt % EGCG and 0.6 wt % CA
Procedure: as §1

Row | Compound | Amount of EGCG free in solution (wt % of total EGCG) [1] | Average Particle Size (nm) [2] [nm] | Appearance [3]
1 | O=C(O)[C@@H]1CCCN1 [L-proline] | 100 wt % of total EGCG | 2 | Transparent
2 | poly-L-proline | 0 wt % of total EGCG |  | 
